Reference: US20250051263A1, “NOVEL IONIZABLE LIPIDS AND LIPID NANOPARTICLES AND METHODS OF USING THE SAME” (Sail Biomedicines, Inc., priority 2021, published 2025)

Tests used:
[1] = TNS (pKa) assay, apparent LNP pKa; assay type: physicochemical; details: Example 5 LNP lipid:DOPE:Plant Cholesterol:DMPE-PEG2k 35:16:46.5:2.5, FLUC/EPO 1:1 mRNA, N:P 6:1
How it was run: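 LNPs (0.04 mg/mL mRNA in PBS) were mixed with TNS (0.3 mM stock in DMSO) in 20 buffers spanning pH 3.0–12.0 (10 mM phosphate/borate/citrate, 150 mM NaCl), in triplicate. Fluorescence was read at 321/445 nm and fitted to a 4-parameter sigmoid. The pH at half-maximal fluorescence gives the apparent pKa.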

[2] = system: Balb/c mice; assay: In-vivo bioluminescent imaging after IV injection of Fluc mRNA LNP; details: Example 5 LNP (DOPE 35:16:46.5:2.5), IV, 5 μg FLUC + 5 μg EPO; for Bioluminescence (IV) Liver / Bioluminescence (IV) Lung / Bioluminescence (IV) Spleen / Bioluminescence (IV) Whole Body: 4-6 hours post-dose; for Spleen: Liver Ratio: ratio of bioluminescence

Row | Structure (SMILES) | pKa (TNS) [1] | Bioluminescence (IV) Liver [2] | Bioluminescence (IV) Lung [2] | Bioluminescence (IV) Spleen [2] | Bioluminescence (IV) Whole Body [2] | Spleen: Liver Ratio [2]
1 | CCCCCCCCCCCC(=O)OCCCCCN(CCCCCCCC(=O)OC(CCCCCCCC)CCCCCCCC)CCNC(=O)CCC(=O)NCCN(CCCCCCCC(=O)OC(CCCCCCCC)CCCCCCCC)CCCCCOC(=O)CCCCCCCCCCC [Compound 2354, 5-[2-[[4-[2-[5-dodecanoyloxypentyl-[8-(1-octylnonoxy)-8-oxo-octyl]amino]ethylamino]-4-oxo-butanoyl]amino]ethyl-[8-(1-octylnonoxy)-8-oxo-octyl]amino] pentyl dodecanoate] | 6.47 | 5.6E+06 | 6.2E+03 | 7.3E+05 | 4.5E+07 | 0.131
2 | CCCCCCCCCC(C)COC(=O)CCCCCN(CCCCCCCC(=O)OC(CCCCCCCC)CCCCCCCC)CCNC(=O)CCC(=O)NCCN(CCCCCCCC(=O)OC(CCCCCCCC)CCCCCCCC)CCCCCC(=O)OCC(C)CCCCCCCCC (stereo not drawn) [Compound 2355, 1-octylnonyl 8-[[6-(2-methylundecoxy)-6-oxo-hexyl]-[2-[[4-[2-[[6-(2-methylundecoxy)-6-oxo-hexyl]-[8-(1-octylnonoxy)-8-oxo-octyl]amino]ethylamino]-4-oxo-butanoyl]amino]ethyl]amino]octanoate] | 6.2 | 1.8E+07 | 5.9E+03 | 4.6E+05 | 1.4E+08 | 0.026
3 | CCCCCCCCCCC(CC)OC(=O)CCCCCN(CCCCCCCC(=O)OC(CCCCCCCC)CCCCCCCC)CCNC(=O)CCC(=O)NCCN(CCCCCCCC(=O)OC(CCCCCCCC)CCCCCCCC)CCCCCC(=O)OC(CC)CCCCCCCCCC (stereo not drawn) [Compound 2356, 1-octylnonyl 8-[[6-(1-ethylundecoxy)-6-oxo-hexyl]-[2-[[4-[2-[[6-(1-ethylundecoxy)-6-oxo-hexyl]-[8-(1-octylnonoxy)-8-oxo-octyl]amino]ethylamino]-4-oxo-butanoyl]amino]ethyl]amino]octanoate] | 6.01 | 1.3E+08 | 9.1E+03 | 1.3E+06 | 8.1E+08 | 0.010
4 | CCCCCCCCCCC(CC)OC(=O)CCCCCN(CCCCCCCC(=O)OC(CCCCCCCC)CCCCCCCC)CCNC(=O)/C=C/C(=O)NCCN(CCCCCCCC(=O)OC(CCCCCCCC)CCCCCCCC)CCCCCC(=O)OC(CC)CCCCCCCCCC (stereo not drawn) [Compound 2378, 1-octylnonyl 8-[[6-(1-ethylundecoxy)-6-oxo-hexyl]-[2-[[(E)-4-[2-[[6-(1-ethylundecoxy)-6-oxo-hexyl]-[8-(1-octylnonoxy)-8-oxo-octyl]amino]ethylamino]-4-oxo-but-2-enoyl]amino]ethyl]amino]octanoate] | 6.33 | 1.6E+07 | 7.6E+03 | 2.2E+05 | 1.8E+08 | 0.007
5 | CCCCCCCCCCCOC(=O)CCCCCN(CCCCCCCC(=O)OCCCC(CCCCC)CCCCC)CCNC(=O)/C=C/C(=O)NCCN(CCCCCCCC(=O)OCCCC(CCCCC)CCCCC)CCCCCC(=O)OCCCCCCCCCCC [Compound 2382, 4-pentylnonyl 8-[2-[[(E)-4-oxo-4-[2-[[8-oxo-8-(4-pentylnonoxy)octyl]-(6-oxo-6-undecoxy-hexyl)amino]ethylamino]but-2-enoyl]amino]ethyl-(6-oxo-6-undecoxy-hexyl)amino]octanoate] | 6.97 | 1.9E+07 | 2.1E+04 | 2.1E+06 | 1.5E+08 | 0.104
6 | CCCCCCCCCCCOC(=O)CCCCCN(CCCCCCCC(=O)OC(CCCCCC)CCCCCCCC)CCNC(=O)CCC(=O)NCCN(CCCCCCCC(=O)OC(CCCCCC)CCCCCCCC)CCCCCC(=O)OCCCCCCCCCCC (stereo not drawn) [Compound 2390, 1-hexylnonyl 8-[2-[[4-[2-[[8-(1-hexylnonoxy)-8-oxo-octyl]-(6-oxo-6-undecoxy-hexyl)amino]ethylamino]-4-oxo-butanoyl]amino]ethyl-(6-oxo-6-undecoxy-hexyl)amino]octanoate] | 6.82 | 1.9E+07 | 1.2E+04 | 1.7E+06 | 1.9E+08 | 0.094
7 | CCCCCCCCCCCOC(=O)CCCCCN(CCCCCCCC(=O)OCCCC(CCCCC)CCCCC)CCN1CCN(CCN(CCCCCCCC(=O)OCCCC(CCCCC)CCCCC)CCCCCC(=O)OCCCCCCCCCCC)CC1 [Compound 2397, 4-pentylnonyl 8-[2-[4-[2-[[8-oxo-8-(4-pentylnonoxy)octyl]-(6-oxo-6-undecoxy-hexyl)amino]ethyl]piperazin-1-yl]ethyl-(6-oxo-6-undecoxy-hexyl)amino]octanoate] | 6.44 | 1.4E+07 | 9.4E+03 | 6.5E+05 | 6.5E+07 | 0.052
